This is an account of results in patent US20220144881A1, “COMPOUNDS AND METHODS FOR MANUFACTURE OF HYPOMETHYLATING AGENTS” (priority 2020, published 2022).

This series can be described thus: Effect of relative humidity on polymorphic forms of Compound 10 (monitored by XRPD). The note with it: for Stability at 0% RH: relevant condition for storage and further processing; for Form conversion at 33% RH: Form A only after at least 2 weeks; for Description of polymorph (stability / conditions of formation): RH = relative humidity; for Form conversion at 97% RH and above: RH of 97% and above. The format is physicochemical. How it is done:
Studies were performed to identify the different polymorphic forms of Compound 10 drug substance. Seven polymorphs of Compound 10 in total have been identified (TABLE 1).
Compound 10 is hygroscopic and is therefore packaged and stored at conditions that inhibit moisture uptake. Experiments were performed to understand the effect of relative humidity on various polymorphic forms of Compound 10. Form A and Form B were subjected to increasing relative humidity (TABLE 2) and monitored using XRPD to evaluate polymorphism.
Forms A, B, C, and D were characterized by X-ray powder diffraction (XRPD). XRPD diffractograms were collected with a PANalytical X'Pert PRO MPD® diffractometer using an incident beam of Cu radiation produced using an Optix long, fine-focus source. An elliptically graded multilayer mirror was used to focus Cu Kα X-rays through the specimen and onto the detector. Prior to the analysis, a silicon specimen (NIST SRM 640e) was analyzed to verify the observed position of the Si 111 peak is consistent with the NIST-certified position. For the determination of solid forms under the environmental conditions surveyed in EXAMPLE 6, samples of Compound 10 were stored within environmental chambers maintained at specific relative humidity conditions. A specimen of the sample was sandwiched between 3-μm-thick Etnom® films within these environmental chambers. Once prepared, the test article was removed from the environmental chamber and analyzed in transmission geometry without undue delay. A beam-stop, short antiscatter extension, and antiscatter knife edge were used to minimize the background generated by air. Soller slits for the incident and diffracted beams were used to minimize broadening from axial divergence. Diffraction patterns were collected using a scanning position-sensitive detector (X'Celerator) located 240 mm from the specimen and Data Collector software v. 2.2b.

In the case of `Nc1ncn([C@H]2C[C@H](OP(=O)([O-])OC[C@H]3O[C@@H](n4cnc5c(=O)[nH]c(N)nc54)C[C@@H]3O)[C@@H](CO)O2)c(=O)n1.[Na+]` [Compound 10, guadecitabine sodium], the Hygroscopicity result is on record as “hygroscopic”.
Take `Nc1ncn([C@H]2C[C@H](OP(=O)([O-])OC[C@H]3O[C@@H](n4cnc5c(=O)[nH]c(N)nc54)C[C@@H]3O)[C@@H](CO)O2)c(=O)n1.[Na+]` [Form A, guadecitabine sodium]: the “Stability at 0% RH” value is “stable” and the “Description of polymorph (stability / conditions of formation)” value is on record as “Stable form at 0% RH”. Also, under “33% RH”, the “Duration of stability at 33% RH” value was “at least 2 weeks” and the “Form conversion at 33% RH” value was “converted to Form K”.
As for `Nc1ncn([C@H]2C[C@H](OP(=O)([O-])OC[C@H]3O[C@@H](n4cnc5c(=O)[nH]c(N)nc54)C[C@@H]3O)[C@@H](CO)O2)c(=O)n1.[Na+]` [Form B, guadecitabine sodium], the “Stability at 0% RH” value is listed as “stable”; the “Description of polymorph (stability / conditions of formation)” value is “Stable form at 0% RH”; the “Form conversion at 97% RH and above” value is reported as “deliquescence to afford a mesophase”. Also, where the note is “33% RH”, the “Form conversion at 33% RH” value is “converted to Form H”. For the same compound, the “Polymorph observed at 97% RH” value (97% relative humidity, XRPD) is reported as “Mesophase”. Also, the “Form obtained on increasing RH” value (RH increased beyond 33%) was “formation of Form D”.
With `Nc1ncn([C@H]2C[C@H](OP(=O)([O-])OC[C@H]3O[C@@H](n4cnc5c(=O)[nH]c(N)nc54)C[C@@H]3O)[C@@H](CO)O2)c(=O)n1.[Na+]` [Form C, guadecitabine sodium], the “Description of polymorph (stability / conditions of formation)” value is recorded as “Formed from ethanolic slurry of Form A”.
Take `Nc1ncn([C@H]2CC(OP(=O)([O-])OC[C@H]3O[C@@H](n4cnc5c(=O)[nH]c(N)nc54)CC3O)[C@@H](CO)O2)c(=O)n1.[Na+]` (some centres unmarked) [Form D, guadecitabine sodium]: the “Description of polymorph (stability / conditions of formation)” value is “Formed from Form B at 58% RH”.
Still for that read-out and setting: with `Nc1ncn([C@H]2C[C@H](OP(=O)([O-])OC[C@H]3O[C@@H](n4cnc5c(=O)[nH]c(N)nc54)C[C@@H]3O)[C@@H](CO)O2)c(=O)n1.[Na+]` [Form H, guadecitabine sodium] the entry was “Formed from Form B at 33% RH”.
For `Nc1ncn([C@H]2C[C@H](OP(=O)([O-])OC[C@H]3O[C@@H](n4cnc5c(=O)[nH]c(N)nc54)C[C@@H]3O)[C@@H](CO)O2)c(=O)n1.[Na+]` [Form K, guadecitabine sodium], the “Description of polymorph (stability / conditions of formation)” value is listed as “Formed from Form A at 58% RH”; the “Form conversion at 97% RH and above” value was “converted to Form L”.
In the case of `Nc1ncn([C@H]2CC(OP(=O)([O-])OC[C@H]3O[C@@H](n4cnc5c(=O)[nH]c(N)nc54)CC3O)[C@@H](CO)O2)c(=O)n1.[Na+]` (some centres unmarked) [Form L, guadecitabine sodium], the “Description of polymorph (stability / conditions of formation)” value was “Formed from Form A at 97% RH”.
